The values that follow come from paper PMC10827914 (Cellular and Molecular Life Sciences: CMLS, 2024).

Where a SMILES comes first, the peptide text is derived from it. Bridges are numbered along the chain shown (N, C = ends). Where no end group is shown, it is not given here.

His-tagged recombinant human CD13 (rCD13) (human), sequence (P15144 33-967): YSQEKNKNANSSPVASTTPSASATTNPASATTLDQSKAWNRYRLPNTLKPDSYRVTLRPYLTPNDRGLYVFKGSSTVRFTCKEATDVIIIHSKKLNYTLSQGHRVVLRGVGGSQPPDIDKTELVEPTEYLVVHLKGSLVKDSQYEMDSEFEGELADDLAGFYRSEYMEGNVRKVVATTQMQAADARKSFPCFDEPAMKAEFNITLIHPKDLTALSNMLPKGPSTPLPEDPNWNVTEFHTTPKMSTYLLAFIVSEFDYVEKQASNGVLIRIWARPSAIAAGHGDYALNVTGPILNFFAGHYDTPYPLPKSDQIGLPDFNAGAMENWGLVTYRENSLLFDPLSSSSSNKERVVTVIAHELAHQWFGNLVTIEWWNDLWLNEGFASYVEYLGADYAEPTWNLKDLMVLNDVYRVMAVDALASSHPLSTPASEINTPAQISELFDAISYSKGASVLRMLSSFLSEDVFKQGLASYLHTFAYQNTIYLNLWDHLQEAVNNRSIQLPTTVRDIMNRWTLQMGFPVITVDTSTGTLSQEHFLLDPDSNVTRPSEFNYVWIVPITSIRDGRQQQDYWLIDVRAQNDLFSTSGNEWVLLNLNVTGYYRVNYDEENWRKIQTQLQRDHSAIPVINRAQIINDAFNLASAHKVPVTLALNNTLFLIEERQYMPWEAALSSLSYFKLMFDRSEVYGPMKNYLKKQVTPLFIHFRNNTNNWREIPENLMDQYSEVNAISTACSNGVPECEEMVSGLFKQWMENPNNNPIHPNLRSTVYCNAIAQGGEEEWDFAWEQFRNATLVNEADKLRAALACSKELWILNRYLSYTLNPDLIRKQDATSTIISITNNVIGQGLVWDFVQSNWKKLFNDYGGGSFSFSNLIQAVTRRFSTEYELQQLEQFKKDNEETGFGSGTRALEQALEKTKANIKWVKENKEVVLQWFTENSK

For one assay, the target named is T1, recombinant human CD13 (rCD13) (Homo sapiens, UniProt P15144).
T1 construct: consisting of the CD13 extracellular domain expressed in HEK-293 cells; His-tag; purchased Sino Biological 10051-H08H; host or cells: HEK-293 cells
T1 sequence (P15144 33-967 limits assumed): as the sequence (P15144 33-967) above
Briefly: rCD13 enzyme inhibition assay, L-alanine 7-amido-4-methylcoumarin substrate. It counts as biochemical. The following applies: 0.1 mM L-alanine 7-amido-4-methylcoumarin, 60 mM Tris-HCl pH 7.4, fluorescence; mean ± SEM of n independent experiments; read-out: IC50: peptide concentration that inhibits 50% of rCD13 enzymatic activity. Here is the method: (§1) Recombinant CD13 (rCD13) enzyme activity and inhibition assays were performed as described previously using L-alanine-p-nitroanilide or L-alanine 7-amido-4-methylcoumarin as substrates in 60 mM Tris–HCl, pH 7.4, or 60 mM potassium phosphate buffer, pH 7.4. Mixtures containing peptides at various concentrations, rCD13 (0.2 µg/mL), and L-alanine-p-nitroanilide substrate (0.5 mM) in 60 mM potassium phosphate buffer, pH 7.4 (total volume, 0.1 ml) were prepared and left to react for 30 min at 37 °C. The products were then analyzed using a plate reader (iMark Microplate Absorbance Reader; Bio-Rad). Alternatively, the assay was performed using 0.1 mM L-alanine 7-amido-4-methylcoumarin in 60 mM Tris–HCl, pH 7.4, as a substrate. Fluorescence intensity of methylcoumarin was measured on an Infinite 200 PRO plate reader (Tecan) using the following settings: excitation wavelength: 341 nm; emission wavelength: 441 nm; excitation bandwidth: 9; emission bandwidth: 20 nm; gain: 109 manual; number of flashes: 25; integration time: 20 µs; lag time: 0 µs; settle time: 0 ms.
(§2) The IC50 of each inhibitor was calculated by non-linear regression analysis of inhibition data using GraphPad Prism Software (GraphPad Software, Version 9.00, San Diego, CA). Steady-state enzyme kinetic analyses were performed using various concentrations of L-alanine-p-nitroanilide (0–1.5 mM) and VGCARRYCS peptide (0–900 nM). The initial velocities (Vo) were calculated from the slopes of the first 5 min of reaction. The enzyme inhibitory constant (Ki) was calculated using the competitive enzyme inhibition model in GraphPad Prism Software.
Fig. 2 G4 recognizes soluble forms of CD13, with higher affinity and selectivity than bestatin, and the membrane forms expressed on the surface of HUVEC cells. A Inhibitory effects of G4 and bestatin on the enzymatic activities of different aminopeptidases (rCD13, APA, and APB). Various amounts of G4 or bestatin were incubated with rCD13 (0.2 µg/mL in 60 mM Tris–HCl pH 7.4), APA (0.2 µg/mL in 60 mM Tris–HCl pH 7.4, 50 mM calcium chloride, 200 mM sodium chloride) or APB (0.2 µg/mL in 60 mM Tris–HCl pH 7.4, 100 mM potassium chloride) and the corresponding substrates at 0.1 mM (L-alanine-7-amido-4-methylcoumarin for rCD13, L-glutamic acid γ-(7-amido-4-methylcoumarin) for APA, and L-arginine-7-amido-4-methylcoumarin for APB). The mixtures were incubated for 30 min at 37 °C, and the cleavage of each substrate was monitored by measuring the fluorescence of methylcoumarin (λex 341 nm; λem 441 nm) using an Infinite 200 PRO plate reader (Tecan). Three independent experiments were performed for each enzyme. The results of one representative experiment for each enzyme are shown (mean ± SEM, duplicates). B Inhibitory effects of G4 and bestatin on soluble CD13 immunocaptured from human serum (sCD13) using microtiter plates coated with anti-CD13 mAb WM15. The microtiter plate was filled with a solution of mAb WM15 (5 μg/ml in DPBS) and incubated overnight at 4 °C. The plate was then washed with DPBS, blocked with 3% bovine serum albumin (BSA) in DPBS, and filled with human serum containing soluble CD13 (diluted 1:2 with DPBS containing 2% BSA). After washing with DPBS, mixtures of G4 or bestatin (0–100 µM in 60 mM Tris–HCl, pH 7.4) and L-alanine p-nitroanilide hydrochloride substrate (4.5 mM in 60 mM Tris–HCl, pH 7.4) were added and left to incubate at 37 °C for 2 h. Substrate cleavage by sCD13 dissociated from mAb WM15 was then monitored by measuring the absorbance at 405 nm in each well using a plate reader (Bio-Rad). The results of one experiment performed in triplicate are shown (mean ± SEM). C Effect of G4 on the binding of the anti-CD13 mAb WM15 to HUVEC. HUVEC were seeded at a density of 2 × 10^5 cells in 100 µL DPBS supplemented with 5% normal human serum (NHS) and incubated with a mixture of G4 peptide (0, 0.1, 1, and 10 µM) and mAb WM15 (0 or 0.13 nM) as indicated. […]
Regarding `CC(C)[C@H](N)C(=O)NCC(=O)N[C@H]1CSSC[C@@H](C(=O)N[C@@H](CO)C(=O)N[C@@H](CC(N)=O)C(=O)O)NC(=O)[C@H](Cc2ccc(O)cc2)NC(=O)[C@H](CCCNC(=N)N)NC(=O)[C@H](CCCNC(=N)N)NC(=O)[C@H](C)NC1=O` [VGCARRYCSN] (H-VGCARRYCSN-OH; disulfide 3-8), the IC50 turned out to be 0.19 ± 0.01 µM.

`CC(=O)N[C@H](C(=O)NCC(=O)N[C@H]1CSSC[C@@H](C(=O)N[C@@H](CO)C(=O)N[C@@H](CC(N)=O)C(=O)O)NC(=O)[C@H](Cc2ccc(O)cc2)NC(=O)[C@H](CCCNC(=N)N)NC(=O)[C@H](CCCNC(=N)N)NC(=O)[C@H](C)NC1=O)C(C)C` [ac-VGCARRYCSN] (Ac-VGCARRYCSN-OH; disulfide 3-8; C-terminus assumed): the IC50 is more than 1000 µM.

With `C[C@@H]1NC(=O)[C@@H](NC(=O)CN)CSSC[C@@H](C(=O)N[C@@H](CO)C(=O)O)NC(=O)[C@H](Cc2ccc(O)cc2)NC(=O)[C@H](CCCNC(=N)N)NC(=O)[C@H](CCCNC(=N)N)NC1=O` [GCARRYCS] (H-GCARRYCS-OH; disulfide 2-7), the IC50 came to 69.5 ± 0.1 µM.

Take `C[C@@H]1NC(=O)[C@@H](NC(=O)CN)CSSC[C@@H](C(=O)N[C@@H](CO)C(=O)N[C@@H](CC(N)=O)C(=O)O)NC(=O)[C@H](Cc2ccc(O)cc2)NC(=O)[C@H](CCCNC(=N)N)NC(=O)[C@H](CCCNC(=N)N)NC1=O` [GCARRYCSN] (H-GCARRYCSN-OH; disulfide 2-7): the IC50 is 40.1 ± 1.9 µM.

With `CC(C)[C@H](N)C(=O)NCC(=O)N[C@H]1CSSC[C@@H](C(=O)O)NC(=O)[C@H](Cc2ccc(O)cc2)NC(=O)[C@H](CCCNC(=N)N)NC(=O)[C@H](CCCNC(=N)N)NC(=O)[C@H](C)NC1=O` [VGCARRYC] (H-VGCARRYC-OH; disulfide 3-8), the IC50 was 0.23 ± 0.01 µM.

The next assay has as its target His-tagged recombinant human CD13 (rCD13) (human) (UniProt P15144).
Assay: not given
Conditions: not given
Take GCARRYCSN [… with deletion of Val-1]: the inhibition of rCD13 enzymatic activity, against … (fold loss of activity) was 200.

In the case of CARRYCSN [… with deletion of Val-1 and Gly-2], the inhibition of rCD13 enzymatic activity, against … (fold loss of activity) worked out at 270.

As to VGCARRYC [… with deletion of Ser-9 and Asn-10], the inhibition of rCD13 enzymatic activity, against … (fold decrease) worked out at 3.

Consider CARRYC (disulfide 1-6 (inferred)) [small disulfide-bridged peptide CARRYC], for which the IC50 of inhibition of rCD13 enzymatic activity turned out to be 51 µM.

A further assay concerns the target T1, recombinant human CD13 (rCD13). Briefly: rCD13 enzyme inhibition assay, L-alanine-p-nitroanilide substrate. It is filed as biochemical. The conditions noted are these: negative control peptide; rCD13 0.2 µg/ml, L-alanine-p-nitroanilide, Supplementary Fig. S2A. Here is the method:
as §1, §2
A) VGCGRRYCSN and CSGIGSSGGC (control) peptides, at various concentrations, were mixed with rCD13 (0.2 µg/mL), L-alanine-p-nitroanilide substrate (0.5 mM), in 60 mM potassium phosphate buffer, pH 7.4. The mixtures were left to react for 30 min at 37° C; then the absorbance at 405 nm of each mixture was measured using an ELISA plate reader (Bio-Rad). The IC50 of each inhibitor was calculated by non-linear regression analysis of inhibition data using the GraphPad Prism Software (GraphPad Software, Version 9.00, San Diego, CA). The result of one experiment performed in duplicate is shown (mean ± SEM).
For “CSGIGSGGC [negative control peptide, reference compound]”, the “Inhibition of rCD13 enzymatic activity (in words)” value was “no inhibition”.

The assay is the same for the next values; noted with them: rCD13 0.2 μg/mL, L-alanine-p-nitroanilide 0.5 mM, 60 mM potassium phosphate buffer pH 7.4, 30 min, 37 °C, absorbance; mean ± SEM of n independent experiments; read-out: IC50: peptide concentration that inhibits 50% of rCD13 enzymatic activity.
In the case of `C[C@H](N)C(=O)NCC(=O)N[C@H]1CSSC[C@@H](C(=O)N[C@@H](CO)C(=O)N[C@@H](CC(N)=O)C(=O)O)NC(=O)[C@H](Cc2ccc(O)cc2)NC(=O)[C@H](CCCNC(=N)N)NC(=O)[C@H](CCCNC(=N)N)NC(=O)CNC1=O` [AGCGRRYCSN] (H-AGCGRRYCSN-OH; disulfide 3-8), the IC50 was 11.4 ± 4.5 µM.

As to `CC(C)[C@H](N)C(=O)NCC(=O)N[C@H]1CSSC[C@@H](C(=O)N[C@@H](CO)C(=O)N[C@@H](CC(N)=O)C(=O)O)NC(=O)[C@H](Cc2ccc(O)cc2)NC(=O)[C@H](CCCNC(=N)N)NC(=O)[C@H](C)NC(=O)CNC1=O` [VGCGARYCSN] (H-VGCGARYCSN-OH; disulfide 3-8), the IC50 is 12.1 ± 8.4 µM.

Regarding `CC(C)[C@H](N)C(=O)NCC(=O)N[C@H]1CSSC[C@@H](C(=O)N[C@@H](CO)C(=O)N[C@@H](CC(N)=O)C(=O)O)NC(=O)[C@H](Cc2ccc(O)cc2)NC(=O)[C@H](CCCNC(=N)N)NC(=O)[C@H](CCCNC(=N)N)NC(=O)CNC1=O` [VGCGRRYCSN] (H-VGCGRRYCSN-OH; disulfide 3-8), the IC50 worked out at 2.01 ± 1.1 µM.

For the molecule `CC(C)[C@H](N)C(=O)NCC(=O)N[C@H]1CSSC[C@@H](C(=O)N[C@@H](CO)C(=O)N[C@@H](CC(N)=O)C(=O)O)NC(=O)[C@H](Cc2ccc(O)cc2)NC(=O)[C@H](CCCNC(=N)N)NC(=O)[C@H](CCCNC(=N)N)NC(=O)[C@H](C)NC1=O` [VGCARRYCSN] (H-VGCARRYCSN-OH; disulfide 3-8), the IC50 amounted to 0.2 ± 0.06 µM.

On to VGAGRRYASN [VGAGRRYASN], for which the IC50 worked out at 6.2 ± 4.8 µM.

As for `CC(C)[C@H](N)C(=O)N[C@@H](C)C(=O)N[C@H]1CSSC[C@@H](C(=O)N[C@@H](CO)C(=O)N[C@@H](CC(N)=O)C(=O)O)NC(=O)[C@H](Cc2ccc(O)cc2)NC(=O)[C@H](CCCNC(=N)N)NC(=O)[C@H](CCCNC(=N)N)NC(=O)CNC1=O` [VACGRRYCSN] (H-VACGRRYCSN-OH; disulfide 3-8), the IC50 was 4.5 ± 5.1 µM.

In the case of `CC(C)[C@H](N)C(=O)NCC(=O)N[C@H]1CSSC[C@@H](C(=O)N[C@@H](CO)C(=O)N[C@@H](CC(N)=O)C(=O)O)NC(=O)[C@H](Cc2ccc(O)cc2)NC(=O)[C@H](C)NC(=O)[C@H](CCCNC(=N)N)NC(=O)CNC1=O` [VGCGRAYCSN] (H-VGCGRAYCSN-OH; disulfide 3-8), the IC50 was 17.6 ± 4.6 µM.

As for `CC(C)[C@H](N)C(=O)NCC(=O)N[C@H]1CSSC[C@@H](C(=O)N[C@@H](CO)C(=O)N[C@@H](CC(N)=O)C(=O)O)NC(=O)[C@H](C)NC(=O)[C@H](CCCNC(=N)N)NC(=O)[C@H](CCCNC(=N)N)NC(=O)CNC1=O` [VGCGRRACSN] (H-VGCGRRACSN-OH; disulfide 3-8), the IC50 amounted to 8.9 ± 5.5 µM.
